Consider 13 molecules from patent publication US20230348442A1, “GALECTIN-3 INHIBITING 2-HYDROXYCYCLOALKANE-1-CARBAMOYL DERIVATIVES” (Idorsia Pharmaceuticals Ltd, priority 2020, published 2023).

Molecules are shown by their SMILES.

Sequence of human Gal-3 (hGal-3) (P17931 whole entry): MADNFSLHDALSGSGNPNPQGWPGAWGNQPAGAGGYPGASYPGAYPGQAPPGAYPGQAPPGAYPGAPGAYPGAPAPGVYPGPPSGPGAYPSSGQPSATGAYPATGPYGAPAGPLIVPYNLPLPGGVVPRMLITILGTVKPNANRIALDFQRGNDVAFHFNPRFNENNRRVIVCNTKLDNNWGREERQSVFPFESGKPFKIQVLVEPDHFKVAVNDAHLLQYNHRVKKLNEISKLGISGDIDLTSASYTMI

This test concerns the target human Gal-3 (hGal-3) (Homo sapiens (Human), UniProt P17931). The test is described as follows: competitive binding assay: binding of biotinylated hGal-3 to microplate-adsorbed asialofetuin (ASF), spectrophotometric. To be noted: Activity on hGal-3; mean values of several measurements. Put shortly:
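Compounds diluted in DMSO competed with biotinylated hGal-3 or hGal-1 (300-1000 ng/mL) for binding to plate-adsorbed asialofetuin for 3 h at 4° C. Bound galectin was detected with streptavidin-peroxidase (80 ng/mL, 1 h, 4° C) and ABTS substrate; IC50 reported as mean of several measurements.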
`Cc1c(F)cc(-c2cn([C@H]3[C@@H](O)[C@@H](CO)O[C@@H](C(=O)N(c4cc(Cl)cc(Cl)c4)[C@H]4CCC[C@@H]4O)[C@@H]3O)nn2)cc1F` [Example 1H.4.2, (2R,3R,4S,5R,6R)-N-(3,5-dichlorophenyl)-4-(4-(3,5-difluoro-4-methylphenyl)-1H-1,2,3-triazol-1-yl)-3,5-dihydroxy-N-((1S,2S)-2-hydroxycyclopentyl)-6-(hydroxymethyl)tetrahydro-2H-pyran-2-carboxamide] registered an IC50 of 22.7 nM.
Regarding `CC(=O)O[C@@H]1[C@@H](n2cc(-c3cc(F)c(F)c(F)c3)nn2)[C@@H](O)[C@@H](CO)O[C@H]1C(=O)N(c1cc(Cl)cc(C#N)c1)[C@@H]1CC[C@H]1O` [Example 2A.1.4R, (2R,3R,4S,5R,6R)-2-((3-chloro-5-cyanophenyl)((1R,2R)-2-hydroxycyclobutyl)carbamoyl)-5-hydroxy-6-(hydroxymethyl)-4-(4-(3,4,5-trifluorophenyl)-1H-1,2,3-triazol-1-yl)tetrahydro-2H-pyran-3-yl acetate], the IC50 was 80.6 nM.
The value for `CO[C@@H]1[C@@H](n2cc(-c3cc(F)c(Cl)c(Cl)c3)nn2)[C@@H](O)[C@@H](CO)O[C@H]1C(=O)N(c1cc(Br)cc(C#N)c1)[C@@H]1CC[C@H]1O` [Example 2.17.5R, (2R,3R,4S,5R,6R)-N-(3-bromo-5-cyanophenyl)-4-(4-(3,4-dichloro-5-fluorophenyl)-1H-1,2,3-triazol-1-yl)-5-hydroxy-N-((1R,2R)-2-hydroxycyclobutyl)-6-(hydroxymethyl)-3-methoxytetrahydro-2H-pyran-2-carboxamide] was 254 nM; that for `CC(=O)O[C@@H]1[C@@H](n2cc(-c3cc(F)c(F)c(F)c3)nn2)[C@@H](O)[C@@H](CO)O[C@H]1C(=O)N(c1cc(Cl)cc(C#N)c1)[C@H]1CCC[C@@H]1O` [Example 1A.1.4, (2R,3R,4S,5R,6R)-2-((3-chloro-5-cyanophenyl)((1S,2S)-2-hydroxycyclopentyl)carbamoyl)-5-hydroxy-6-(hydroxymethyl)-4-(4-(3,4,5-trifluorophenyl)-1H-1,2,3-triazol-1-yl)tetrahydro-2H-pyran-3-yl acetate] was 25.3 nM.
For `COc1cc(-c2cn([C@H]3[C@@H](O)[C@@H](CO)O[C@@H](C(=O)N(c4cc(Cl)cc(Cl)c4)[C@@H]4CC[C@H]4O)[C@@H]3OC)nn2)cc(F)c1F` [Example 2.3.2R, (2R,3R,4S,5R,6R)-N-(3,5-dichlorophenyl)-4-(4-(3,4-difluoro-5-methoxyphenyl)-1H-1,2,3-triazol-1-yl)-5-hydroxy-N-((1R,2R)-2-hydroxycyclobutyl)-6-(hydroxymethyl)-3-methoxytetrahydro-2H-pyran-2-carboxamide] the value was 190 nM.
In turn, `CO[C@@H]1[C@@H](n2cc(-c3ccc(Br)c(F)c3F)nn2)[C@@H](O)[C@@H](CO)O[C@H]1C(=O)N(c1cc(Br)cc(C#N)c1)[C@@H]1CC[C@H]1O` [Example 2.12.5R, (2R,3R,4S,5R,6R)-4-(4-(4-bromo-2,3-difluorophenyl)-1H-1,2,3-triazol-1-yl)-N-(3-bromo-5-cyanophenyl)-5-hydroxy-N-((1R,2R)-2-hydroxycyclobutyl)-6-(hydroxymethyl)-3-methoxytetrahydro-2H-pyran-2-carboxamide] had an IC50 of 78.5 nM.
The value for `CO[C@@H]1[C@@H](n2cc(-c3cc(F)c(F)c(F)c3)nn2)[C@@H](O)[C@@H](CO)O[C@H]1C(=O)N(c1cc(Cl)cc(Cl)c1)[C@@H]1CC[C@H]1O` [Example 2.1.2R, (2R,3R,4S,5R,6R)-N-(3,5-dichlorophenyl)-5-hydroxy-N-((1R,2R)-2-hydroxycyclobutyl)-6-(hydroxymethyl)-3-methoxy-4-(4-(3,4,5-trifluorophenyl)-1H-1,2,3-triazol-1-yl)tetrahydro-2H-pyran-2-carboxamide] was 110 nM.
For `CO[C@@H]1[C@@H](n2cc(-c3ccc(Cl)c(Cl)c3)nn2)[C@@H](O)[C@@H](CO)O[C@H]1C(=O)N(c1cc(Br)cc(C#N)c1)[C@@H]1CC[C@H]1O` [Example 2.8.5R, (2R,3R,4S,5R,6R)-N-(3-bromo-5-cyanophenyl)-4-(4-(3,4-dichlorophenyl)-1H-1,2,3-triazol-1-yl)-5-hydroxy-N-((1R,2R)-2-hydroxycyclobutyl)-6-(hydroxymethyl)-3-methoxytetrahydro-2H-pyran-2-carboxamide] the value was 446 nM.
For `CO[C@@H]1[C@@H](n2cc(-c3cc(F)cc(Br)c3)nn2)[C@@H](O)[C@@H](CO)O[C@H]1C(=O)N(c1cc(C)cc(C#N)c1)[C@@H]1CC[C@H]1O` [Example 2.10.8R, (2R,3R,4S,5R,6R)-4-(4-(3-bromo-5-fluorophenyl)-1H-1,2,3-triazol-1-yl)-N-(3-cyano-5-methylphenyl)-5-hydroxy-N-((1R,2R)-2-hydroxycyclobutyl)-6-(hydroxymethyl)-3-methoxytetrahydro-2H-pyran-2-carboxamide] the value was 1190 nM.
`CO[C@@H]1[C@@H](n2cc(-c3ccc(C)c(F)c3F)nn2)[C@@H](O)[C@@H](CO)O[C@H]1C(=O)N(c1cc(Cl)cc(Cl)c1)[C@@H]1CC[C@H]1O` [Example 2.11.2R, (2R,3R,4S,5R,6R)-N-(3,5-dichlorophenyl)-4-(4-(2,3-difluoro-4-methylphenyl)-1H-1,2,3-triazol-1-yl)-5-hydroxy-N-((1R,2R)-2-hydroxycyclobutyl)-6-(hydroxymethyl)-3-methoxytetrahydro-2H-pyran-2-carboxamide] yielded an IC50 of 74.8 nM.
For `CO[C@@H]1[C@@H](n2cc(-c3cc(F)c(Cl)c(F)c3)nn2)[C@@H](O)[C@@H](CO)O[C@H]1C(=O)N(c1cc(Br)cc(C#N)c1)[C@H]1CCC[C@@H]1O` [Example 1.5.5, (2R,3R,4S,5R,6R)-N-(3-bromo-5-cyanophenyl)-4-(4-(4-chloro-3,5-difluorophenyl)-1H-1,2,3-triazol-1-yl)-5-hydroxy-N-((1S,2S)-2-hydroxycyclopentyl)-6-(hydroxymethyl)-3-methoxytetrahydro-2H-pyran-2-carboxamide] the value was 33.9 nM; for `COc1cc(-c2cn([C@H]3[C@@H](O)[C@@H](CO)O[C@@H](C(=O)N(c4cc(Cl)cc(Cl)c4)[C@H]4CCC[C@@H]4O)[C@@H]3OC)nn2)cc(F)c1F` [Example 1.3.2, (2R,3R,4S,5R,6R)-N-(3,5-dichlorophenyl)-4-(4-(3,4-difluoro-5-methoxyphenyl)-1H-1,2,3-triazol-1-yl)-5-hydroxy-N-((1S,2S)-2-hydroxycyclopentyl)-6-(hydroxymethyl)-3-methoxytetrahydro-2H-pyran-2-carboxamide], 29.5 nM.
The value for `CO[C@@H]1[C@@H](n2cc(-c3cc(F)c(F)c(F)c3)nn2)[C@@H](O)[C@@H](CO)O[C@H]1C(=O)N(c1cc(Br)cc(Br)c1)[C@H]1CC[C@@H]1O` [Example 2.1.11, (2R,3R,4S,5R,6R)-N-(3,5-dibromophenyl)-5-hydroxy-N-((1S,2S)-2-hydroxycyclobutyl)-6-(hydroxymethyl)-3-methoxy-4-(4-(3,4,5-trifluorophenyl)-1H-1,2,3-triazol-1-yl)tetrahydro-2H-pyran-2-carboxamide] was 72.5 nM.
